#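 In this assay, cells in 96-well plates receive the compound at five concentrations for 48 hours. Endpoints are linearly interpolated between the surrounding concentrations. The concentration for 50% growth inhibition is given as GI50.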 Active and inactive are the calls of the source. No stated cut-off is given here; in the data, active = GI50 up to about 1.1 µM and inactive = higher.
# What was measured:
# Experiment in all cases: growth of human tumour cells (NCI), 48 h
# COLO 205 = test system: COLO 205
# RPMI-8226 = test system: RPMI-8226
# NCI-H460 = test system: NCI-H460
# OVCAR-4 = test system: OVCAR-4
# OVCAR-8 = test system: OVCAR-8
# SF-295 = test system: SF-295
# SK-MEL-5 = test system: SK-MEL-5
# OVCAR-5 = test system: OVCAR-5
# NCI-H522 = test system: NCI-H522
# SK-OV-3 = test system: SK-OV-3
# HOP-62 = test system: HOP-62
# HL-60 = test system: HL-60
# M19-MEL = test system: M19-MEL
# NCI-H23 = test system: NCI-H23
# HOP-18 = test system: HOP-18
# KM12 = test system: KM12
# 786-0 = test system: 786-0
# HCT-116 = test system: HCT-116
# SF-268 = test system: SF-268
# HT-29 = test system: HT-29
# UO-31 = test system: UO-31
# UACC-62 = test system: UACC-62
# M14 = test system: M14
# HOP-92 = test system: HOP-92
# IGROV-1 = test system: IGROV-1
# KM-20L2 = test system: KM-20L2
# OVCAR-3 = test system: OVCAR-3
# A549 = test system: A549
# DLD-1 = test system: DLD-1
# U-251 = test system: U-251
# LXFL 529 = test system: LXFL 529
# SK-MEL-28 = test system: SK-MEL-28
# TK-10 = test system: TK-10
# A498 = test system: A498
# HCC 2998 = test system: HCC 2998
# MOLT-4 = test system: MOLT-4
# DMS-114 = test system: DMS-114
# SK-MEL-2 = test system: SK-MEL-2
# Malme-3M = test system: Malme-3M
# DMS-273 = test system: DMS-273
# SF-539 = test system: SF-539
# CCRF-CEM = test system: CCRF-CEM
# SW-620 = test system: SW-620
# SR = test system: SR
# RXF 393 = test system: RXF 393
# LOX IMVI = test system: LOX IMVI
# K562 = test system: K562
# SNB-19 = test system: SNB-19
# SN12C = test system: SN12C
# ACHN = test system: ACHN
# HCT-15 = test system: HCT-15
# SNB-75 = test system: SNB-75
# CAKI-1 = test system: CAKI-1
# NCI-H226 = test system: NCI-H226
# UACC-257 = test system: UACC-257
# SNB-78 = test system: SNB-78
# EKVX = test system: EKVX
smiles,measurement,setting,value
Cc1nc2cc(Nc3ccccc3C(=O)O)ccc2s1,GI50,COLO 205,> 100 µM (inactive)
same,GI50,RPMI-8226,> 100 µM (inactive)
same,GI50,NCI-H460,> 100 µM (inactive)
same,GI50,OVCAR-4,> 100 µM (inactive)
same,GI50,OVCAR-8,> 100 µM (inactive)
same,GI50,SF-295,> 100 µM (inactive)
same,GI50,SK-MEL-5,> 100 µM (inactive)
same,GI50,OVCAR-5,> 100 µM (inactive)
same,GI50,NCI-H522,75 µM (inactive)
same,GI50,SK-OV-3,> 100 µM (inactive)
same,GI50,HOP-62,> 100 µM (inactive)
same,GI50,HL-60,> 100 µM (inactive)
same,GI50,M19-MEL,> 100 µM (inactive)
same,GI50,NCI-H23,> 100 µM (inactive)
same,GI50,HOP-18,88.9 µM (inactive)
same,GI50,KM12,> 100 µM (inactive)
same,GI50,786-0,> 100 µM (inactive)
same,GI50,HCT-116,90.8 µM (inactive)
same,GI50,SF-268,> 100 µM (inactive)
same,GI50,HT-29,> 100 µM (inactive)
same,GI50,UO-31,34 µM (inactive)
same,GI50,UACC-62,> 100 µM (inactive)
same,GI50,M14,> 100 µM (inactive)
same,GI50,HOP-92,> 100 µM (inactive)
same,GI50,IGROV-1,> 100 µM (inactive)
same,GI50,KM-20L2,> 100 µM (inactive)
same,GI50,OVCAR-3,> 100 µM (inactive)
same,GI50,A549,> 100 µM (inactive)
same,GI50,DLD-1,> 100 µM (inactive)
same,GI50,U-251,> 100 µM (inactive)
same,GI50,LXFL 529,> 100 µM (inactive)
same,GI50,SK-MEL-28,> 100 µM (inactive)
same,GI50,TK-10,> 100 µM (inactive)
same,GI50,A498,> 100 µM (inactive)
same,GI50,HCC 2998,> 100 µM (inactive)
same,GI50,MOLT-4,> 100 µM (inactive)
same,GI50,DMS-114,> 100 µM (inactive)
same,GI50,SK-MEL-2,> 100 µM (inactive)
same,GI50,Malme-3M,> 100 µM (inactive)
same,GI50,DMS-273,> 100 µM (inactive)
same,GI50,SF-539,> 100 µM (inactive)
same,GI50,CCRF-CEM,> 100 µM (inactive)
same,GI50,SW-620,> 100 µM (inactive)
same,GI50,SR,> 100 µM (inactive)
same,GI50,RXF 393,> 100 µM (inactive)
same,GI50,LOX IMVI,> 100 µM (inactive)
same,GI50,K562,> 100 µM (inactive)
same,GI50,SNB-19,> 100 µM (inactive)
same,GI50,SN12C,63.4 µM (inactive)
same,GI50,ACHN,> 100 µM (inactive)
same,GI50,HCT-15,63.1 µM
same,GI50,SNB-75,> 100 µM (inactive)
same,GI50,CAKI-1,> 100 µM (inactive)
O=[N+]([O-])c1cc(C2SCc3nc4ccccc4n32)ccc1Cl (centres undefined),GI50,COLO 205,22.1 µM (inactive)
same,GI50,RPMI-8226,20.3 µM (inactive)
same,GI50,NCI-H460,31.8 µM (inactive)
same,GI50,OVCAR-8,30.3 µM (inactive)
same,GI50,SF-295,38 µM (inactive)
same,GI50,SK-MEL-5,15 µM (inactive)
same,GI50,OVCAR-5,14.3 µM (inactive)
same,GI50,NCI-H226,25.1 µM (inactive)
same,GI50,NCI-H522,20 µM (inactive)
same,GI50,SK-OV-3,28.1 µM (inactive)
same,GI50,HL-60,16 µM (inactive)
same,GI50,M19-MEL,22.2 µM (inactive)
same,GI50,NCI-H23,16.1 µM (inactive)
same,GI50,HOP-18,76.7 µM (inactive)
same,GI50,KM12,16.7 µM (inactive)
same,GI50,786-0,34.3 µM (inactive)
same,GI50,HCT-116,17.8 µM (inactive)
same,GI50,SF-268,20.7 µM (inactive)
same,GI50,HT-29,30.8 µM (inactive)
same,GI50,UO-31,18.5 µM (inactive)
same,GI50,UACC-62,18.6 µM (inactive)
same,GI50,UACC-257,22.3 µM (inactive)
same,GI50,HOP-92,25.1 µM (inactive)
same,GI50,IGROV-1,45.9 µM (inactive)
same,GI50,OVCAR-3,25.3 µM (inactive)
same,GI50,A549,33.1 µM (inactive)
same,GI50,DLD-1,26.1 µM (inactive)
same,GI50,U-251,27.2 µM (inactive)
same,GI50,LXFL 529,23.1 µM (inactive)
same,GI50,SK-MEL-28,25.9 µM (inactive)
same,GI50,TK-10,47.5 µM (inactive)
same,GI50,A498,18.1 µM (inactive)
same,GI50,SNB-78,23.2 µM (inactive)
same,GI50,HCC 2998,18.4 µM (inactive)
same,GI50,MOLT-4,31.3 µM (inactive)
same,GI50,DMS-114,20.1 µM (inactive)
same,GI50,SK-MEL-2,21.2 µM (inactive)
same,GI50,Malme-3M,34.8 µM (inactive)
same,GI50,DMS-273,24.2 µM (inactive)
same,GI50,SF-539,27.8 µM (inactive)
same,GI50,CCRF-CEM,24.9 µM (inactive)
same,GI50,SW-620,41 µM (inactive)
same,GI50,SR,30.2 µM (inactive)
same,GI50,RXF 393,25.3 µM (inactive)
same,GI50,K562,17.1 µM (inactive)
same,GI50,SNB-19,45.9 µM (inactive)
same,GI50,SN12C,12 µM (inactive)
same,GI50,ACHN,27.5 µM (inactive)
same,GI50,EKVX,31.4 µM (inactive)
same,GI50,SNB-75,28.7 µM (inactive)
same,GI50,CAKI-1,33.3 µM (inactive)

# From ChEMBL document CHEMBL1201862, “PubChem BioAssay data set” (2004)
